Key:
Format in all cases: biochemical
[1] = molecular target: rhMAO-B (Homo sapiens (Human), UniProt P27338); assay: MAO-Glo assay, MAO-B inhibition
Experimental: (§1) The capability of compounds described herein to inhibit MAO was determined using a modified Promega MAO-Glo™ assay kit. The substrate ((4S)-4,5-dihydro-2-(6-hydroxybenzothiazolyl)-4-thiazolecarboxylic acid) was converted by MAO to produce methyl ester luciferin. The luciferin was then converted by luciferase to produce oxyluciferin and light. The light was measured using a luminescence setting on the plate reader. A standard curve was prepared by serially diluting luciferin in reaction buffer. The standard kit reaction buffer was used—100 mM HEPES (pH 7.5), 5% glycerol. The substrate was dispensed into the wells so that the final concentration for MAO-A inhibition assay would be 10 μM and MAO-B inhibition assay would be […]. Inhibitors were diluted in DMSO to 4× and distributed to the appropriate wells. Clorgyline and Deprenyl served as positive controls. rhMAO-A and rhMAO-B were purchased from Sigma. MAO-A or MAO-B was added to the appropriate wells. The plate was incubated for 1 hour, at room temperature with gentle shaking (90 rpm). The detection agent was added at equal volume (48 μL detection agent to 48 μL reaction). The plate was incubated for 20 minutes, at room temperature with gentle shaking (90 rpm). The plate luminescence was read. Data processing was performed using Prism software.
(§2) The capability of compounds described herein to inhibit MAO was determined using a modified Promega MAO-Glo™ assay. Test compounds, substrate and enzyme were incubated per manufacturer instructions for 1 hour, at room temperature with gentle shaking (90 rpm) before addition of detection agent. The detection agent was added at equal volume (48 μL detection agent to 48 μL reaction). The plate was incubated for 20 minutes, at room temperature with gentle shaking (90 rpm). The plate luminescence was read. Data processing was performed using Prism software.

[2] = molecular target: rhVAP-1 (Homo sapiens (Human), UniProt Q16853); assay: VAP-1 fluorometric assay (Amplex Red/HRP, benzylamine substrate); conditions: class symbols, ranges defined in μM
Chain of rhVAP-1 (Q16853 whole entry): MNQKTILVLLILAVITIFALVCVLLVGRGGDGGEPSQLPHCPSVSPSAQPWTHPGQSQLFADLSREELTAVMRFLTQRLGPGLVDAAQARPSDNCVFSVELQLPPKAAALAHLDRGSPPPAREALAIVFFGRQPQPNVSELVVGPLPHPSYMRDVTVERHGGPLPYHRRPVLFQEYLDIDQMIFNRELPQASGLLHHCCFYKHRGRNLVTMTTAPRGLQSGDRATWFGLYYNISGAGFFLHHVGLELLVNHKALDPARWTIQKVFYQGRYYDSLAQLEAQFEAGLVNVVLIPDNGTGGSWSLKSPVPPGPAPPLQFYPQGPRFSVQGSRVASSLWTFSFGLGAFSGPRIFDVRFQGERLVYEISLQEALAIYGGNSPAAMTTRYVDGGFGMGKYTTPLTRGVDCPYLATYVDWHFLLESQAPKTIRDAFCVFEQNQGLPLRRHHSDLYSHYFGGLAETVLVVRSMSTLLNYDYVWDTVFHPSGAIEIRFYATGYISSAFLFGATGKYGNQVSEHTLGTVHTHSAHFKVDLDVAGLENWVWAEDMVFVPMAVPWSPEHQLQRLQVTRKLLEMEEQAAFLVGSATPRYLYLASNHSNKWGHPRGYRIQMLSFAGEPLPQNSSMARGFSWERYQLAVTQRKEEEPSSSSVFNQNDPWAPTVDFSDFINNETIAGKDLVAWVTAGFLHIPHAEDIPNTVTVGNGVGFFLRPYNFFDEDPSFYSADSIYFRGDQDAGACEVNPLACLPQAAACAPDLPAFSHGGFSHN
Experimental: The capability of compounds described herein to inhibit the enzymatic activity of vascular adhesion protein-1 (VAP-1) was determined by fluorometric assay. The assay procedure provided by R&D Systems was modified slightly for use as an inhibitor screening assay. The assay measured the H2O2 generated from the oxidative deamination of benzylamine by rhVAP-1 by converting Amplex® Red to the fluorescent product, resorufin, via horseradish peroxidase (HRP) and H2O2. Reaction buffer was 10 mM NaHCO3, pH 7.4. A standard curve was prepared by serially diluting H2O2 in reaction buffer. A 10 μM solution of resorufin was prepared in reaction buffer and was dispensed to 2 wells. These wells served as positive control for maximum fluorescence. Reaction buffer was added to the individual wells so that the final volume in each well was 100 μL. Amplex Red was diluted to 1 mM in reaction buffer. A 10 U stock of HRP was prepared in reaction buffer. A reaction cocktail was prepared by mixing equal parts 1 mM Amplex Red with 10 U HRP with 3 parts reaction buffers. The reaction cocktail was added to the appropriate wells, so that that final concentration in the well was 0.05 mM Amplex Red and 0.5 U HRP. A 200 μM solution of benzylamine was prepared in reaction buffer. Benzylamine was added to the appropriate wells so that the final concentration was 50 μM. Inhibitors were diluted in DMSO to 20× and distributed to the appropriate wells. LJP-1207 served a positive control. rhVAP-1 was purchased from R&D Systems. The concentration used for each lot was determined so that the activity was equal to the first lot. Two wells were left blank as controls. The plate was incubated for 30 minutes at 37° C., protected from light under foil. The plate was read at 530/35 emission and 590/35 excitation. Data processing was performed using Excel and Prism software.
The capability of compounds described herein to inhibit the enzymatic activity of vascular adhesion protein-1 (VAP-1) was determined by fluorometric assay. The assay procedure provided by R&D Systems was modified slightly for use as an inhibitor screening assay. The assay measured the H2O2 generated from the oxidative deamination of benzylamine by rhVAP-1 by converting Amplex® Red to the fluorescent product, resorufin, via horseradish peroxidase (HRP) and H2O2. Amplex Red, HRP, Benzylamine, inhibitors (with DMSO as vehicle, 0.5% v/v) and rhVAP-1 were added to the wells. Assay was conducted in 10 mM NaHCO3, pH 7.4. A standard curve was prepared by serially diluting H2O2 in reaction buffer. The plate was incubated for 30 minutes at 37° C., protected from light under foil. The plate was read at 530/35 emission and 590/35 excitation. Data processing was performed using Prism software.

[3] = molecular target: rhMAO-A (Homo sapiens (Human), UniProt P21397); assay: MAO-Glo assay, MAO-A inhibition
Chain of rhMAO-A (P21397 whole entry): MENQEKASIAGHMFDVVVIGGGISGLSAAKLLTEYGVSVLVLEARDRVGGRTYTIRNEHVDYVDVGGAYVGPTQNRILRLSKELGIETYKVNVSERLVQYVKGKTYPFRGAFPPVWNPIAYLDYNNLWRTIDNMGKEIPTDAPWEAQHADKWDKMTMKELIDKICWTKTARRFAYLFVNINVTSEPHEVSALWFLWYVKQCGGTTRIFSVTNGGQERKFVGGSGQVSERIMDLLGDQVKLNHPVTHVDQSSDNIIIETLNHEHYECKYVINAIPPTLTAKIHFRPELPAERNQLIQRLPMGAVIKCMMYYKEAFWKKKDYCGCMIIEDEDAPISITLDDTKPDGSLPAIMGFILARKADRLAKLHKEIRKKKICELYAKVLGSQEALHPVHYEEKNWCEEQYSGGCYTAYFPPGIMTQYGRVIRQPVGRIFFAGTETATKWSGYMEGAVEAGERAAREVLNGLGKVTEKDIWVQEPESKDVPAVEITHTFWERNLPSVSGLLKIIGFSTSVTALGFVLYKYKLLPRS
Experimental: as §1, §2

[4] = class symbols, ranges defined in μM

Chain of rhMAO-B (P27338 whole entry): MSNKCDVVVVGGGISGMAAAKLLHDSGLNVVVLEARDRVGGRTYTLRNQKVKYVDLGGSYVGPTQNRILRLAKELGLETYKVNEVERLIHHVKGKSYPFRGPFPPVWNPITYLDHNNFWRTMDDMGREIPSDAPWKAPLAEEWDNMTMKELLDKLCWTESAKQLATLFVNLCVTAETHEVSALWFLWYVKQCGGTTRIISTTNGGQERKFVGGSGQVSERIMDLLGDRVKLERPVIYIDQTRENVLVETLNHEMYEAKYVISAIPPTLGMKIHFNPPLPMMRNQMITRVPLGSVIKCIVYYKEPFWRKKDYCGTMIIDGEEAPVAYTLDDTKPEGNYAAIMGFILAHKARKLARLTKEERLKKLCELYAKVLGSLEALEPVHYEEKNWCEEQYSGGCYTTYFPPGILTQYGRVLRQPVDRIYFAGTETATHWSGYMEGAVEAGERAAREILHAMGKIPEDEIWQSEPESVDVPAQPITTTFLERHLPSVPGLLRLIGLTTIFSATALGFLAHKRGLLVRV

SMILES | IC50 [1, 4] | IC50 [2] | IC50 ([3]; bound printed in cell) | IC50 [3, 4] | IC50 ([1]; bound printed in cell)
Cc1ccc(CNc2nc3ccc(OC/C(=C/F)CN)cc3o2)cn1 [Example 55, (E)-6-((2-(aminomethyl)-3-fluoroallyl)oxy)-N-((6-methylpyridin-3-yl)methyl)benzo[d]oxazol-2-amine 4-methylbenzenesulfonate] | 1 to 10 µM | < 0.1 µM | > 35 µM | – | –
NC/C(=C/F)COc1ccc2nc(NCc3ccc(N4CCCC4=O)cc3)oc2c1 [Example 57, (Z)-1-(4-(((6-((2-(aminomethyl)-3-fluoroallyl)oxy)benzo[d]oxazol-2-yl)amino)methyl)phenyl)pyrrolidin-2-one 4-methylbenzenesulfonate] | – | 1 to 10 µM | – | 1 to 10 µM | > 40 µM
CNC(=O)[C@H](Cc1ccccc1)Nc1nc2ccc(OC/C(=C\F)CN)cc2o1 [Example 71, (S,Z)-2-((6-((2-(aminomethyl)-3-fluoroallyl)oxy)benzo[d]oxazol-2-yl)amino)-N-methyl-3-phenylpropanamide 4-methylbenzenesulfonate] | 1 to 10 µM | < 0.1 µM | > 50 µM | – | –
CCCCc1nc2ccc(OCCC(=CF)CN)cc2o1 [Example 38, 4-((2-butylbenzo[d]oxazol-6-yl)oxy)-2-(fluoromethylene)butan-1-amine 4-methylbenzenesulfonate] | < 0.1 µM | < 0.1 µM | – | 0.1 to 1 µM | –
Cc1ncccc1CNc1nc2ccc(OC/C(=C\F)CN)cc2o1 [Example 69, (Z)-6-((2-(aminomethyl)-3-fluoroallyl)oxy)-N-((2-methylpyridin-3-yl)methyl)benzo[d]oxazol-2-amine 4-methylbenzenesulfonate] | 1 to 10 µM | < 0.1 µM | > 50 µM | – | –
CCCCc1nc2cc(OC/C(=C/F)CN)ccc2n1C [Example 11, (E)-2-(((2-butyl-1-methyl-1H-benzo[d]imidazol-5-yl)oxy)methyl)-3-fluoroprop-2-en-1-amine] | – | < 0.1 µM | > 50 µM | – | > 50 µM
NC/C(=C\F)COc1ccc2nc(CCCCc3ccccc3)oc2c1 [Example 35, 4-methylbenzenesulfonate] | < 0.1 µM | < 0.1 µM | – | 10 to 30 µM | –
NC/C(=C/F)COc1ccc2nc(NCCC3COC3)oc2c1 [Example 65, (Z)-6-((2-(aminomethyl)-3-fluoroallyl)oxy)-N-(2-(oxetan-3-yl)ethyl)benzo[d]oxazol-2-amine 4-methylbenzenesulfonate] | 1 to 10 µM | < 0.1 µM | – | 0.1 to 1 µM | –
CNC(=O)CN(Cc1ccccc1)c1nc2ccc(OC/C(=C/F)CN)cc2o1 [Example 53, (E)-2-((6-((2-(aminomethyl)-3-fluoroallyl)oxy)benzo[d]oxazol-2-yl)(benzyl)amino)-N-methylacetamide 4-methylbenzenesulfonate] | – | < 0.1 µM | > 50 µM | – | > 50 µM
CC(C)(Nc1nc2ccc(OC/C(=C/F)CN)cc2o1)c1ccccc1 [Example 48, (E)-6-((2-(aminomethyl)-3-fluoroallyl)oxy)-N-(2-phenylpropan-2-yl)benzo[d]oxazol-2-amine 4-methylbenzenesulfonate] | 10 to 30 µM | < 0.1 µM | – | 10 to 30 µM | –
NC/C(=C/F)COc1ccc2nc(N3CCOCC3)oc2c1 [Example 64, (Z)-3-fluoro-2-(((2-morpholinobenzo[d]oxazol-6-yl)oxy)methyl)prop-2-en-1-amine 4-methylbenzenesulfonate] | 1 to 10 µM | < 0.1 µM | – | 1 to 10 µM | –
NC/C(=C\F)COc1ccc2nc(NCCCO)oc2c1 [Example 70, (E)-3-((6-((2-(aminomethyl)-3-fluoroallyl)oxy)benzo[d]oxazol-2-yl)amino)propan-1-ol 4-methylbenzenesulfonate] | 1 to 10 µM | < 0.1 µM | – | 1 to 10 µM | –
CNC(=O)C(Cc1ccccc1)Nc1nc2ccc(OC/C(=C\F)CN)cc2o1 (stereo not drawn) [Example 56, (Z)-2-((6-((2-(aminomethyl)-3-fluoroallyl)oxy)benzo[d]oxazol-2-yl)amino)-N-methyl-3-phenylpropanamide 4-methylbenzenesulfonate] | 10 to 30 µM | < 0.1 µM | > 50 µM | – | –
CCCNc1nc2ccc(OC/C(=C/F)CN)c(F)c2o1 [Example 6, (E)-6-((2-(aminomethyl)-3-fluoroallyl)oxy)-7-fluoro-N-propylbenzo[d]oxazol-2-amine] | 0.1 to 1 µM | < 0.1 µM | – | 10 to 30 µM | –

Results, then the compound that gave them:

IC50 [1, 4] | IC50 [2] | IC50 ([3]; bound printed in cell) | IC50 [3, 4] | IC50 ([1]; bound printed in cell) | SMILES
0.1 to 1 µM | < 0.1 µM | – | 10 to 30 µM | – | NC/C(=C\F)COc1ccc2nc(C3CCC(c4ccccc4)CC3)oc2c1 (stereo not drawn) [Example 41, (E)-3-fluoro-2-(((2-(4-phenylcyclohexyl)benzo[d]oxazol-6-yl)oxy)methyl)prop-2-en-1-amine 4-methylbenzenesulfonate]
0.1 to 1 µM | < 0.1 µM | – | 1 to 10 µM | – | COc1cccc(CNc2nc3ccc(OC/C(=C/F)CN)cc3o2)c1 [Example 25, (E)-6-((2-(aminomethyl)-3-fluoroallyl)oxy)-N-(3-methoxybenzyl)benzo[d]oxazol-2-amine 4-methylbenzenesulfonate]
0.1 to 1 µM | < 0.1 µM | – | 10 to 30 µM | – | CC1(C)CCC(c2nc3ccc(OC/C(=C/F)CN)cc3o2)CC1 [Example 36, (E)-2-(((2-(4,4-dimethylcyclohexyl)benzo[d]oxazol-6-yl)oxy)methyl)-3-fluoroprop-2-en-1-amine 4-methylbenzenesulfonate]
1 to 10 µM | < 0.1 µM | – | 10 to 30 µM | – | CCCCc1nc2ccc(C/C(=C/F)CN)cc2o1 [Example 31, (Z)-2-((2-butylbenzo[d]oxazol-6-yl)methyl)-3-fluoroprop-2-en-1-amine]
0.1 to 1 µM | < 0.1 µM | – | 10 to 30 µM | – | CCCCc1nc2ccc(SC/C(=C/F)CN)cc2o1 [Example 22, (E)-2-(((2-butylbenzo[d]oxazol-6-yl)thio)methyl)-3-fluoroprop-2-en-1-amine 4-methylbenzenesulfonate]
1 to 10 µM | < 0.1 µM | – | 10 to 30 µM | – | CC(C)(C)Nc1nc2ccc(OC/C(=C/F)CN)cc2o1 [Example 39, (E)-6-((2-(aminomethyl)-3-fluoroallyl)oxy)-N-(tert-butyl)benzo[d]oxazol-2-amine 4-methylbenzenesulfonate]
0.1 to 1 µM | < 0.1 µM | – | 10 to 30 µM | – | CCCNc1nc2ccc(OC/C(=C/F)CN)cc2o1 [Example 5, (E)-6-((2-(aminomethyl)-3-fluoroallyl)oxy)-N-propylbenzo[d]oxazol-2-amine]
1 to 10 µM | < 0.1 µM | > 50 µM | – | – | NC/C(=C\F)COc1ccc2nc(N3CCS(=O)(=O)CC3)oc2c1 [Example 90, (E)-4-(6-((2-(aminomethyl)-3-fluoroallyl)oxy)benzo[d]oxazol-2-yl)thiomorpholine 1,1-dioxide 4-methylbenzenesulfonate]
0.1 to 1 µM | < 0.1 µM | > 50 µM | – | – | COc1ncccc1CNc1nc2ccc(OC/C(=C\F)CN)cc2o1 [Example 75, (Z)-6-((2-(aminomethyl)-3-fluoroallyl)oxy)-N-((2-methoxypyridin-3-yl)methyl)benzo[d]oxazol-2-amine 4-methylbenzenesulfonate]

Source: patent US20230295140A1, “INHIBITORS OF VAP-1” (Acucela Inc., priority 2021, published 2023)
